For experiment [1], the system named is E coli wild type. Description: MIC by broth microdilution, wild type E coli. In kind it is cell-based. The following applies: for MIC AG160 E. coli WT: clinical isolate AG160 WT; for MIC AG160 E. coli WT / MIC pH430 E. coli WT: Table 2 (Example 4); for MIC pH430 E. coli WT: engineered strain pH430 WT; for MIC AG212 E. coli: strain AG212 E. coli (ATCC25922); for MIC50 E coli AG01: strain AG01; for MIC50 E coli AG03: strain AG03; for MIC50 E coli AG55: strain AG55; for MIC50 E coli BM13 (AG06) wt: Table 2A (Example 2); for MIC50 E coli pH430 WT: Table 2B (Example 2).

Experiment [2] deals with P aeruginosa. Nature of the experiment: MIC by broth microdilution, P aeruginosa isolates. In kind it is cell-based, Pseudomonas aeruginosa. The settings on record: for MIC AG220 P. aerugin: strain AG220 Pseudomonas aeruginosa ATCC27853; for MIC50 P aeruginosa AG31: strain AG31; for MIC50 P aeruginosa AG32: strain AG32; for MIC50 P aeruginosa AG33: strain AG33; for MIC50 P aeruginosa AG86: strain AG86.

For experiment [3], the system named is E coli carrying specific resistance determinants. Description: MIC by broth microdilution, E coli carrying specific resistance determinants. In kind it is cell-based. The following applies: for MIC AG037 E. coli APH(3′)-III: engineered strain AG037 APH(3′)-III; for MIC pH421 E. coli APH(3′)-I: engineered strain pH421 APH(3′)-I; for MIC pH422 E. coli APH(3′)-II: engineered strain pH422 APH(3′)-II; for MIC pH423 E. coli APH(3′)-VI: engineered strain pH423 APH(3′)-VI.

Experiment [4] concerns Klebsiella pneumonia AG215. Description: MIC by broth microdilution, Klebsiella pneumonia. In kind it is cell-based. The settings on record: strain AG215 Klebsiella pneumonia.
The test system of experiment [5] is Acinetobacter baumannii pittii AG225. Description: MIC by broth microdilution, Acinetobacter baumannii. In kind it is cell-based. The following applies: strain AG225 Acinetobacter baumannii pittii. On the technique in general: Dilution methods test growth across graded concentrations, often in twofold steps.
Experiment [6] has as its system Enterobacter cloacae AG290. Nature of the experiment: MIC by broth microdilution, Enterobacter cloacae. In kind it is cell-based. The following applies: strain AG290 Enterobacter cloacae.
Experiment [7] concerns M. smegmatis SZ380. Nature of the experiment: MIC by broth microdilution, M. smegmatis. The following applies: strain SZ380 Mycobacterium smegmatis.
Experiment [8] concerns MRSA. Nature of the experiment: MIC by broth microdilution, MRSA isolates. In kind it is cell-based. The settings on record: for MIC50 MRSA AG38: strain AG38; for MIC50 MRSA AG39: strain AG39; for MIC50 MRSA AG42: strain AG42; for MIC50 MRSA AG44: strain AG44.

≈ marks a conversion by molar mass, not a printed value. Bounds are passed on as bounds.

Regarding `CCC[C@@H]1C(CO)O[C@H](O[C@@H]2C(N)C[C@@H](N)C(O)[C@H]2O[C@@H]2O[C@H](CO)[C@H](O[C@H]3C[C@@H](CN)[C@@H](O)C(O)C3N)C2O)[C@@H](N)C1O` (some centres unmarked) [Compound 116], in experiment [1], the “MIC AG160 E. coli WT” value was determined as 1 µg/mL (≈ 1.56 µM), the “MIC pH430 E. coli WT” value came out at 0.5 μg/ml and the “MIC AG212 E. coli” value is 2 µg/mL (≈ 3.13 µM). For the same compound, in experiment [2], the “MIC AG220 P. aerugin” value stood at 4 µg/mL (≈ 6.25 µM). Further, the “MIC AG163 E. coli APH(3′)-I” value in experiment [3] (clinical isolate AG163 APH(3′)-I, Table 2 (Example 4)) was over 64 µg/mL. Moreover, the “MIC AG166 E. coli APH(3′)-II” value in experiment [3] (clinical isolate AG166 APH(3′)-II, Table 2 (Example 4)) fell in the range of 2 to 4 µg/mL. Besides, in experiment [3] (Table 2 (Example 4)), the “MIC AG037 E. coli APH(3′)-III” value is over 64 µg/mL, the “MIC pH421 E. coli APH(3′)-I” value is over 32 μg/ml, the “MIC pH422 E. coli APH(3′)-II” value is 0.5 μg/ml and the “MIC pH423 E. coli APH(3′)-VI” value is on record as 1 μg/ml. Moreover, the “MIC AG215 K. pneumon” value in experiment [4] was determined as 1 µg/mL (≈ 1.56 µM). The “MIC AG225 A. baumannii” value in experiment [5] was determined as 2 µg/mL (≈ 3.13 µM). Moreover, the “MIC AG290 E. cloacae” value in experiment [6] is 1 µg/mL (≈ 1.56 µM). Besides, the “MIC SZ380 M. smegmatis” value in experiment [7] is 1 µg/mL (≈ 1.56 µM).

As to “5″-Deoxy-5″-ureido-paromomycin acetate salt [Compound 141]”, in experiment [8] (Table 1 (Example 1)), the “MIC50 MRSA AG38” value is 4 to 8 µg/mL, the “MIC50 MRSA AG39” value was over 128 µg/mL, the “MIC50 MRSA AG42” value was over 128 µg/mL and the “MIC50 MRSA AG44” value was 4 µg/mL. Moreover, in experiment [1] (AG006 wt, Table 2 (Example 1)), the “MIC E coli AG006 wt” value is 1 µg/mL. In addition, in experiment [1], the “MIC AG160 E. coli WT” value came out at 4 µg/mL, the “MIC pH430 E. coli WT” value is listed as 2-4 μg/ml and the “MIC AG212 E. coli” value worked out at 4 µg/mL. Besides, in experiment [1] (Table 1 (Example 1)), the “MIC50 E coli AG01” value was found to be 16 µg/mL, the “MIC50 E coli AG03” value came to 16 µg/mL and the “MIC50 E coli AG55” value was 16 µg/mL. In addition, in experiment [2] (Table 1 (Example 1)), the “MIC50 P aeruginosa AG31” value was over 128 µg/mL, the “MIC50 P aeruginosa AG32” value was over 128 µg/mL, the “MIC50 P aeruginosa AG33” value was over 128 µg/mL and the “MIC50 P aeruginosa AG86” value was over 128 µg/mL. Further, in experiment [2], the “MIC AG220 P. aerugin” value is over 64 µg/mL. Moreover, in experiment [3] (Table 2 (Example 4)), the “MIC AG037 E. coli APH(3′)-III” value is over 128 µg/mL, the “MIC pH421 E. coli APH(3′)-I” value is listed as over 64 μg/ml, the “MIC pH422 E. coli APH(3′)-II” value was over 64 μg/ml and the “MIC pH423 E. coli APH(3′)-VI” value is given as over 64 μg/ml. Further, in experiment [4], the “MIC AG215 K. pneumon” value was 2 µg/mL. Besides, the “MIC AG225 A. baumannii” value in experiment [5] amounted to 4 µg/mL. In addition, the “MIC AG290 E. cloacae” value in experiment [6] lay in the range of 2 to 4 µg/mL. In experiment [7], the “MIC SZ380 M. smegmatis” value is 2 µg/mL.

On to `CCCC(O)C1OC(OC2C(N)CC(N)C(O)C2OC2OC(CO)C(OC3OC(CN)C(O)C(O)C3N)C2O)C(N)C(O)C1O` (centres unmarked) [Compound 142], for which, in experiment [8] (Table 1 (Example 2)), the “MIC50 MRSA AG38” value worked out at 4 µg/mL (≈ 6.08 µM), the “MIC50 MRSA AG39” value is over 128 µg/mL, the “MIC50 MRSA AG42” value is over 128 µg/mL and the “MIC50 MRSA AG44” value turned out to be 2 µg/mL (≈ 3.04 µM). For the same compound, in experiment [1], the “MIC50 E coli BM13 (AG06) wt” value was found to be 1 µg/mL (≈ 1.52 µM), the “MIC50 E coli pH430 WT” value is recorded as 1 μg/ml and the “MIC AG212 E. coli” value was found to be 2 µg/mL (≈ 3.04 µM). In addition, in experiment [1] (Table 1 (Example 2)), the “MIC50 E coli AG01” value worked out at 8 µg/mL (≈ 12.2 µM), the “MIC50 E coli AG03” value was found to be 8 µg/mL (≈ 12.2 µM) and the “MIC50 E coli AG55” value amounted to 8 µg/mL (≈ 12.2 µM). In addition, in experiment [2] (Table 1 (Example 2)), the “MIC50 P aeruginosa AG31” value is over 128 µg/mL, the “MIC50 P aeruginosa AG32” value is over 128 µg/mL, the “MIC50 P aeruginosa AG33” value was over 128 µg/mL and the “MIC50 P aeruginosa AG86” value was over 128 µg/mL. In addition, the “MIC AG220 P. aerugin” value in experiment [2] is over 32 µg/mL. In experiment [3] (Table 2B (Example 2)), the “MIC50 E coli AG036 ANT(4′,4″)” value lay within 32 to 64 µg/mL, the “MIC50 E coli AG037 APH(3′)-III” value is over 32 µg/mL, the “MIC50 E coli AG103 armA” value was 1 µg/mL (≈ 1.52 µM) and the “MIC50 E coli pH421 APH(3′)-I” value is over 32 μg/ml. Also, in experiment [3] (Table 2B (Example 2)), the “MIC50 E coli pH422 APH(3′)-II” value was over 32 μg/ml, the “MIC50 E coli pH423 APH(3)-VI” value was over 32 μg/ml and the “MIC50 E coli pH432 ANT(4′)” value was determined as 1 μg/ml. Also, the “MIC50 E coli pH414 AAC(6′)-I” value in experiment [3] (pH414 AAC(6′)-I, Table 2B (Example 2)) amounted to 1 μg/ml. Besides, the “MIC50 E coli pH415 AAC(6′)-II” value in experiment [3] (pH415 AAC(6′)-II, Table 2B (Example 2)) is 1 μg/ml. Moreover, the “MIC AG215 K. pneumon” value in experiment [4] came to 1 µg/mL (≈ 1.52 µM). Further, the “MIC AG225 A. baumannii” value in experiment [5] is 2 µg/mL (≈ 3.04 µM). The “MIC AG290 E. cloacae” value in experiment [6] turned out to be 1 µg/mL (≈ 1.52 µM). Further, the “MIC SZ380 M. smegmatis” value in experiment [7] came out at 0.5 µg/mL (≈ 0.76 µM).

For the compound `CCCC(O)C1OC(OC2C(N)CC(N)C(O)C2OC2OC(CO)C(OC3OC(CN)C(O)C(O)C3N)C2O)C(N)C(O)C1O` (centres unmarked) [Compound 143], in experiment [8] (Table 1 (Example 2)), the “MIC50 MRSA AG38” value lay within 32 to 64 µg/mL, the “MIC50 MRSA AG39” value was over 64 µg/mL, the “MIC50 MRSA AG42” value was over 64 µg/mL and the “MIC50 MRSA AG44” value came to 16 µg/mL (≈ 24.3 µM). Besides, in experiment [1], the “MIC50 E coli BM13 (AG06) wt” value amounted to 4 µg/mL (≈ 6.08 µM), the “MIC50 E coli pH430 WT” value is 4 μg/ml and the “MIC AG212 E. coli” value is 8 µg/mL (≈ 12.2 µM). Further, in experiment [1] (Table 1 (Example 2)), the “MIC50 E coli AG01” value came out at 32 µg/mL (≈ 48.7 µM), the “MIC50 E coli AG03” value came out at 32 µg/mL (≈ 48.7 µM) and the “MIC50 E coli AG55” value worked out at 32 µg/mL (≈ 48.7 µM). Besides, in experiment [2] (Table 1 (Example 2)), the “MIC50 P aeruginosa AG31” value is over 64 µg/mL, the “MIC50 P aeruginosa AG32” value is over 64 µg/mL, the “MIC50 P aeruginosa AG33” value was over 64 µg/mL and the “MIC50 P aeruginosa AG86” value was over 64 µg/mL. For the same compound, in experiment [2], the “MIC AG220 P. aerugin” value is over 128 µg/mL. For the same compound, in experiment [3] (Table 2B (Example 2)), the “MIC50 E coli AG036 ANT(4′,4″)” value stood at 64 µg/mL (≈ 97.3 µM), the “MIC50 E coli AG037 APH(3′)-III” value was over 128 µg/mL, the “MIC50 E coli AG103 armA” value is 16 to 32 µg/mL and the “MIC50 E coli pH421 APH(3′)-I” value is listed as over 128 μg/ml. Further, in experiment [3] (Table 2B (Example 2)), the “MIC50 E coli pH422 APH(3′)-II” value is over 128 μg/ml, the “MIC50 E coli pH423 APH(3)-VI” value is reported as 32-64 μg/ml and the “MIC50 E coli pH432 ANT(4′)” value was determined as 4 μg/ml. For the same compound, the “MIC AG215 K. pneumon” value in experiment [4] turned out to be 4 µg/mL (≈ 6.08 µM). For the same compound, the “MIC AG225 A. baumannii” value in experiment [5] was 4 to 8 µg/mL. Also, the “MIC AG290 E. cloacae” value in experiment [6] lay within 4 to 8 µg/mL. In experiment [7], the “MIC SZ380 M. smegmatis” value came out at 16 µg/mL (≈ 24.3 µM).

Source of the values: patent publication US11466044B2 (WAYNE STATE UNIVERSITY, priority 2017, dated 2022).
